Measured values as given in ChEMBL document CHEMBL1764954, “Activation of the G-protein-coupled receptor 119: a conformation-based hypothesis for understanding agonist response” (J Med Chem, 2011).
≈ marks a conversion by molar mass, not a printed value. Calls of active or inactive are those of the source. No cut-off for these calls is given here.

Columns and labels:
[1] = tested on: Rattus norvegicus; assay: Hypoglycemic activity in overnight fasted Wistar rats assessed as decrease in glucose AUC at 5 and 50 mg/kg, po by oral glucose tolerance test; type: functional, organism-based; set-up: dose 50 mg/kg
[2] = tested on: Rattus norvegicus; assay: Increase in GLP1 level in overnight fasted Wistar rats at 5 and 50 mg/kg, po; type: functional, organism-based; set-up: dose 50 mg/kg
[3] = Solubility of the compound in gastric fluid at pH 1.2; type: physicochemical; settings: simulated gi fluid
[4] = Aqueous solubility of the compound; type: physicochemical; settings: aqueous medium

**Q.** Which Activity [1] does the source give for Cc1ncccc1Oc1ncnc(OC2C3COCC2CN(C(=O)OC(C)C)C3)c1C (stereo in doubt; 8) [listing 1 of 2 here] here?
**A.** Active

**Q.** And the Activity [2]?
**A.** Active

**Q.** With Cc1ncccc1Oc1ncnc(OC2C3COCC2CN(C(=O)OC(C)C)C3)c1C (stereo in doubt; 8) [listing 2 of 2 here] as the compound, how does the solubility [3] read?
**A.** 8.6 mg/mL (≈ 20.1 mM)

**Q.** For Cc1ncccc1Oc1ncnc(OC2CCN(C(=O)OC(C)C)CC2)c1C, which solubility [4] is on record?
**A.** > 40 mg/mL

**Q.** With Cc1ncccc1Oc1ncnc(OC2C3COCC2CN(C(=O)OC(C)C)C3)c1C (stereo in doubt; 9) as the compound, how does the solubility [3] read?
**A.** > 66 mg/mL
